From patent publication US4931447A, “Cycloalkylamides of (8β)-1-alkyl-6-(substituted) ergolines” (Eli Lilly and Company, priority 1989, dated 1990)

Test system: Male Rats
Test: Copulatory performance of male rats, oral administration (Tables V, VI)
Assay type: in vivo, rat (male Sprague-Dawley)
Details: for Postejaculatory Latency / Ejaculatory Latency: 90 min before test, seconds per Table III; for Copulatory Rate: number of mounts per minute
Experimental: Adult male rats of the Sprague-Dawley strain were used in these studies. The sexual behavior evaluations were conducted at 2-week intervals beginning at 6 months of age and ending at 12 months of age. During the initial screening process, the male rats of various levels of sexual performance were selected for compound testing. […] Prior to treatment with a drug solution, each male rat was required to have at least two consecutive vehicle tests with similar sexual performance. Following each compound testing, additional vehicle tests were performed.
The mating tests were performed during the dark phase of the lighting cycle using red light illumination. Each behavioral test was initiated with the introduction of a receptive female rat into the arena and was terminated either 30 minutes later or immediately following the first postejaculatory mount. The indiees of mating performance that were evaluated for the rats capable of ejaculation included mount latency (the time interval from the introduction of the female rat to the first mount); intromission latency (the time interval from the introduction of the female rat to the first intromission); ejaculatory latency (the time interval from intromission to ejaculation); postejaculatory interval (the time from ejaculation to the next mount); mount frequency (the total number of mounts with or without intromission prior to ejaculation); intromission frequency (the number of mounts with intromission prior to ejaculation); intromission efficiency (the intromission frequency divided by the mount frequency); copulatory rate (the number of mounts per minute); copulatory frequency (the number of mounts prior to ejaculation); and copulatory efficiency (the number of mounts with intromission divided by the total number of mounts).
Each male rat was given a solution containing either the vehicle alone in water or the compound of Example 1, (8β)-N-cyclohexyl-1-isopropyl-6-methylergoline-8-carboxamide, in the same vehicle. Vehicle was made of 1 mM (millimolar) acetic acid and 1 mM ascorbic acid.
The results of these studies are set forth below in Tables II-VII. In the Tables "N" is the number of animals used to generate the data, the average of which is provided. The specific description of the test performed is set forth in the heading of the Tables.
All solutions were administered by gavage 90 minutes prior to testing.
Control responses were obtained from the same rats 2 weeks earlier
following vehicle administration by gavage.

With CC(C)n1cc2c3c(cccc31)[C@H]1C[C@@H](C(=O)NC3CCCCC3)CN(C)[C@@H]1C2 [Example 1, (8β)-N-Cyclohexyl-1-isopropyl-6-methylergoline-8-carboxamide] the “Postejaculatory Latency” value (0.01 mcg/kg oral gavage, N = 17, control 358.5 ± 23.1) was 370.2 ± 23.7, the “Ejaculatory Latency” value (0.01 mcg/kg oral gavage, N = 17, control 713.6 ± 58.1, significant (*)) was 689.2 ± 91.2 and the “Copulatory Efficiency” value (0.01 mcg/kg oral gavage, N = 17, control 0.43 ± 0.04) was 0.46 ± 0.05. The “Mount Frequency” value (0.01 mcg/kg oral gavage, N = 17, control 29.7 ± 2.9, significant (*)) was 27.5 ± 4.4, the “Copulatory Rate” value (0.01 mcg/kg oral gavage, N = 17, control 2.5 ± 0.2) was 2.3 ± 0.2 and the “Postejaculatory Latency” value (0.1 mcg/kg oral gavage, N = 14, control 381.9 ± 13.4, significant (*)) was 313.4 ± 12.0. The “Ejaculatory Latency” value (0.1 mcg/kg oral gavage, N = 14, control 735.4 ± 51.9, significant (*)) was 486.5 ± 70.8, the “Copulatory Efficiency” value (0.1 mcg/kg oral gavage, N = 14, control 0.60 ± 0.05) was 0.60 ± 0.05 and the “Mount Frequency” value (0.1 mcg/kg oral gavage, N = 14, control 19.4 ± 2.4) was 18.7 ± 2.1. The “Copulatory Rate” value (0.1 mcg/kg oral gavage, N = 14, control 1.7 ± 0.2, significant (*)) was 2.5 ± 0.4, the “Postejaculatory Latency” value (1.0 mcg/kg oral gavage, N = 8, control 384.1 ± 23.5) was 322.1 ± 15.3 and the “Ejaculatory Latency” value (1.0 mcg/kg oral gavage, N = 8, control 646.3 ± 51.0) was 415.9 ± 62.3. For the same compound, the “Copulatory Efficiency” value (1.0 mcg/kg oral gavage, N = 8, control 0.59 ± 0.06) was 0.58 ± 0.04, the “Mount Frequency” value (1.0 mcg/kg oral gavage, N = 8, control 21.1 ± 3.9, significant (*)) was 16.8 ± 1.8 and the “Copulatory Rate” value (1.0 mcg/kg oral gavage, N = 8, control 2.0 ± 0.4) was 2.7 ± 0.4. The “Postejaculatory Latency” value (10.0 mcg/kg oral gavage, N = 12, control 345.1 ± 20.3, significant (*)) was 299.7 ± 15.1, the “Ejaculatory Latency” value (10.0 mcg/kg oral gavage, N = 12, control 731.0 ± 87.0, significant (*)) was 434.2 ± 37.9 and the “Copulatory Efficiency” value (10.0 mcg/kg oral gavage, N = 12, control 0.43 ± 0.03) was 0.49 ± 0.04. The “Mount Frequency” value (10.0 mcg/kg oral gavage, N = 12, control 25.9 ± 1.6) was 22.9 ± 1.2, the “Copulatory Rate” value (10.0 mcg/kg oral gavage, N = 12, control 2.2 ± 0.2, significant (*)) was 3.3 ± 0.3 and the “Postejaculatory Latency” value (100.0 mcg/kg oral gavage, N = 8, control 417.9 ± 28.4) was 350.6 ± 29.5. The “Ejaculatory Latency” value (100.0 mcg/kg oral gavage, N = 8, control 804.6 ± 73.5, significant (*)) was 366.1 ± 52.2, the “Copulatory Efficiency” value (100.0 mcg/kg oral gavage, N = 8, control 0.51 ± 0.06, significant (*)) was 0.69 ± 0.04 and the “Mount Frequency” value (100.0 mcg/kg oral gavage, N = 8, control 19.4 ± 1.7, significant (*)) was 14.4 ± 1.3. The “Copulatory Rate” value (100.0 mcg/kg oral gavage, N = 8, control 1.4 ± 0.1, significant (*)) was 2.6 ± 0.4.
